Source: US8796323B2, “Defensin-like molecules as novel antimicrobial agents” (University of Maryland, Baltimore, priority 2010, dated 2014)
“Also recorded” adds a separate entry of the source.

Legend:
[1] = ANTS/DPX leakage assay from large unilamellar vesicles
Procedure: Large unilamellar vesicles (LUVs) with the low molecular weight fluorophore/quencher pair (ANTS/DPX) encapsulated were prepared using the standard extrusion method. Specifically, phospholipids were dissolved in chloroform at a desired molar ratio, dried as a film by solvent evaporation. After removal of residual solvent, the lipid film was hydrated in the fluorescent solution containing 5 mM HEPES, 12.5 mM ANTS, 45 mM DPX, and 20 mM NaCl, pH 7.0, freeze-thawed for 10 cycles and extruded 10 times through 0.4-μm polycarbonate membranes. LUVs were separated from unencapsulated materials by gel filtration chromatography using a Sepharose CL-4B column eluted with 5 mM HEPES, 100 mM NaCl, pH 7.4 (high-salt). For leakage assays in a low-salt buffer, purified vesicles were further diluted with 5 mM HEPES containing 10 mM NaCl, pH 7.4.
Leakage of ANTS from LUVs, monitored on a LS-55 Perkin Elmer luminescence spectrometer, was characterized by an increase in fluorescence, which was quenched by DPX when encapsulated together inside liposomes (Ellens, H., et al., 1985, “H+- and Ca2+-induced fusion and destabilization of liposomes,” Biochemistry 24:3099-3106). 270 μl ANTS/DPX-encapsulated LUVs (in either high-salt or low-salt buffers) were added to each well of a 96-well plate to a final lipid concentration of 600 μM. 30 μl H2O was added to the first well of each row as a blank, and 30 μl 2.5% (v/v) Triton X-100 to the last (twelfth) well as the control for 100% leakage. Upon addition of 30 μl of a twofold dilution series of defensin, the fluorescence signal was recorded at 515 nm with an excitation wavelength of 353 nm, 10 nm bandwidths and a 390 nm cut-off filter in the emission path. Percent leakage is expressed as: % leakage=((Ft−F0)/(F100−F0))×100 where Ft is the fluorescence determined at different time points after addition of defensin, F0 is the background fluorescence of the “blank” cells, and F100 is the fluorescence of the control cells containing 0.25% Triton X-100. Lipid II Purification
Defensins are believed to kill bacteria by permeabilizing the membrane, causing leakage of intracellular content and eventually cell lysis and death. The present inventors tested the ability of six human α-defensins to induce leakage of fluorophores encapsulated in LUVs (See FIG. 1). […] (A) At high salt concentration (5 mM HEPES, 100 mM NaCl, pH 7.4). (B) At low salt concentration (5 mM HEPES, 10 mM NaCl, pH 7.4). LUVs were 250 nm in diameter and 600 μM (phospholipids) in concentration.
(A) Effects of surface charge on HNP1-induced leakage from LUVs of four different compositions: POPC (circle, surface charge=0), POPC/POPG=3:2 (square, surface charge=−0.4), POPC/POPG=2:3 (triangle, surface charge=−0.6), and POPG (diamond, surface charge=−1). (B) LUV (POPG:DPPC 1:1) leakage induced by L-HNP1 (circles) or D-HNP1 (squares). A two-fold dilution series of HNP1 peptides from 0.19 to 100 μg/ml was incubated with 600 μM LUVs for one hour before readings were taken. Error bars indicate the standard error in triplicate experiments.

[2] = tested on: S. aureus; details: literature (Ericksen 2005; Wei 2009); cited from earlier work
[3] = tested on: Staphylococcus aureus ATCC 29213; experiment: 96-well turbidimetric antibacterial activity assay of HNP1, with or without Lipid II synthesis inhibitors; format: cell-based
Procedure: The antibacterial activity of HNP1 against Staphylococcus aureus ATCC 29213 was carried out in a 96-well turbidimetric assay essentially as described in Ericksen, B., et al., 2005, “Antibacterial activity and specificity of the six human {alpha}-defensins.” Lipid II levels in S. aureus were manipulated by the addition of three different inhibitors of cell wall synthesis: bacitracin (250 μg/ml), D-cycloserine (64 μg/ml) and fosfomycine (250 μg/ml). Bacterial cultures were pretreated with these compounds for 30 min under shaking at 37° C. […] Bacterial growth was monitored for 12 hours and data were analyzed as described.
To examine whether the observed interaction between HNP1 and Lipid II is functionally relevant in the environment of the membrane, the inventors determined the ability of HNP1 to kill S. aureus with altered levels of Lipid II. Three different inhibitors of cell wall synthesis, fosfomycine, D-cycloserine, and bacitracin, were used to reduce the lipid II levels in S. aureus cells. Bacitracin binds directly to undecaprenyl pyrophosphate, the portion of lipid II that remains in the membrane once GlcNAc-MurNAc is polymerized, and prevents its use in subsequent cycles of lipid II synthesis. Fosfomycine is an inhibitor of MurA, the enzyme responsible for the first step in peptidoglycan synthesis. D-Cycloserine inhibits both alanine racemase and D-Ala-D-Ala ligase, two enzymes required for the synthesis of the D-Ala-D-Ala dipeptide of lipid II. All three inhibitors thus block the synthesis of lipid II (Lunde, C. S., et al., 2009, “Telavancin disrupts the functional integrity of the bacterial membrane through targeted interaction with the cell wall precursor lipid II,” Antimicrob Agents Chemother 53:3375-3383.) S. aureus cells were exposed to each of the Lipid II synthesis inhibitors for 30 min and subsequently exposed to HNP1 at concentrations ranging from 256 to 1 μg/ml for 15 min (FIG. 4).
Survival curves of S. aureus ATCC 29213 exposed to HNP1 at concentrations varying two-fold from 1 to 256 μg/ml. […] Points scored as zero survival could not be plotted.

## HNP1: α-defensin Human Neutrophil Peptide 1, chemically synthesized and folded
[1]; DPPC/POPG (1:1) LUVs, FIG. 2B
  leakage from LUVs, L- versus D-enantiomer: equally efficiently
[1]; POPC LUVs, surface charge 0, 0.19 to 100 μg/ml, regardless of incubation time
  HNP1-induced leakage from LUVs composed solely of neutral lipid POPC: resistant to the attack by HNP1 at all concentrations used
[1]; POPC:POPG 1:0, 3:2, 2:3, 0:1, POPG 0, 40%, 60%, 100%
  HNP1-induced leakage from LUVs as POPG content increases: increasingly pronounced
[1]; POPG LUVs, panel of six human α-defensins, FIG. 1
  membrane activity (leakage of ANTS-DPX from POPG LUVs): reduced
[2]
  bactericidal activity against S. aureus / Gram-positive bacteria: potently bactericidal; also recorded: kills Gram-positive bacteria very efficiently
[3]; 15 min exposure to HNP1
  killing of S. aureus: efficiently killed S. aureus
[3]; HNP-1 exposure 2 hours, data not shown
  killing of S. aureus by HNP-1 after pre-treatment with Lipid II synthesis inhibitors, 2 hours exposure: no difference in bacterial killing
[3]; fosfomycine, D-cycloserine, bacitracin 30 min pre-treatment, HNP1 15 min
  killing of S. aureus by HNP1 after pre-treatment with Lipid II synthesis inhibitors: attenuated killing of S. aureus by HNP1 markedly
